For one series, the target named is α-glucosidase (Saccharomyces cerevisiae, UniProt P53341). Format: biochemical. The protocol: The α-glucosidase inhibitory activity on the S,S,R-5 was performed as per the reported protocols. […] The α-glucosidase solution (0.5 units/mL) was prepared in phosphate buffer (0.1 M, 6.90 pH). p-Nitrophenyl-α-D-glucopyranoside (5 mM) was added as substrate solution to the buffer solution. Different concentrations of the compound, i.e., 500, 250, 125, 62.5, and 31.25 μM were prepared. The enzyme solutions were mixed with the compound’s solution and were incubated for 15 min at 37 °C. To these solutions were added the pre-prepared substrate solution and the repetition of incubation. The final reaction was completed with the addition of sodium carbonate solution (0.2 M, 80 μL). The combined solution excluding the α-glucosidase was used as a blank solution. The absorbances of the solutions were recorded at 405 nm. The observations were repeated three times. The percent inhibitions at each concentration and the IC50 values were calculated according to the standard formula [48].

Another series relates to albino mice. To be noted: mouse, in vivo. On the procedure: We also tested the toxicity profile of our compound S,S,R-5 by using the simple acute toxicity test in experimental albino mice. The mice were acquired and used in the animal house of our university as per the standard guidelines of the departmental ethical committee. As per the standard procedure, we gave various concentrations of compound S,S,R-5 to albino mice and observed them for the next 72 h.

Another series concerns the target α-amylase. Nature of the series: In-vitro α-amylase inhibition. Type of series: biochemical. On the procedure:
The potential of stereopure S,S,R-5 against the α-amylase was also determined as per the protocols. The enzyme solution was prepared in the phosphate buffer and was mixed with different concentrations of the compound to allow the reaction. All the solutions were incubated as per the method. Dinitrosalicylic acid was added to the compound and standard solutions. The respective solutions were heated in water baths for a few minutes. The absorbances of the solutions were recorded at 656 nm. The observations were repeated three times. The percent inhibitions at each concentration and the IC50 values were calculated according to the standard formula [50].

Series [1] addresses T1, protein tyrosine phosphatase 1B (PTP-1B) (Homo sapiens, UniProt P18031).
T1 sequence (P18031 1-435): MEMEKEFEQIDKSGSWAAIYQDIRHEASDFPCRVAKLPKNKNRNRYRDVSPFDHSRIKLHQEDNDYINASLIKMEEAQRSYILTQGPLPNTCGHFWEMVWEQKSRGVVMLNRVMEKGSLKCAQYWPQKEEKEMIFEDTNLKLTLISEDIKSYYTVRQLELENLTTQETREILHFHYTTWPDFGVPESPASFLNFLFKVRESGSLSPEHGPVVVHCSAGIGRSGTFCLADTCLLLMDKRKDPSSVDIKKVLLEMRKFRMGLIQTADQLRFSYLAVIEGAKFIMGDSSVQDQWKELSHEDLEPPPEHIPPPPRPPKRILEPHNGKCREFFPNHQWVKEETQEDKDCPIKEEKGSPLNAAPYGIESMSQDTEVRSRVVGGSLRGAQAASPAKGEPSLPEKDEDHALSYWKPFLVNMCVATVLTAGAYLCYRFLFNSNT
Nature of the series: Protein tyrosine phosphatase 1B inhibition. Format: biochemical. To be noted: for inhibition at 31.25 µM: 31.25 μM/mL; for inhibition at 31.25 µM / inhibition at 62.5 µM / inhibition at 125 µM / inhibition at 250 µM: read-out: PTP-1B Percent Inhibition (converted); for inhibition at 62.5 µM: 62.5 μM/mL; for inhibition at 125 µM: 125 μM/mL; for inhibition at 250 µM: 250 μM/mL; for inhibition at 500 µM: 500 μM/mL. On the procedure: A buffer solution with pH 7 of 3,3-dimethyl glutarate was used. […] All the solutions were incubated at 27 °C for 40 min. The absorbances of the solutions were recorded at 405 nm. The observations were repeated three times. The percent inhibitions at each concentration and the IC50 values were calculated according to the standard formula.

The nature of series [2]: DPPH free radical scavenging assay (antioxidant assay). On the procedure: To supplement the role of free radicals in diabetes, the free radical scavenging potential of compound S,S,R-5 was also determined as per the standard method. Different concentrations of the stereopure compound were prepared and DPPH solution in methanol (0.004%) were added to it. The solutions were incubated for half an hour. The absorbances of the solutions were recorded at 517 nm. The observations were repeated three times. The percent inhibitions at each concentration and the IC50 values were calculated according to the standard formula [52].

[3] abbreviates: 500 μM/mL, listed as minor diastereomer (S,S,R-5).

These results are taken from publication PMC9146474, “3-(((1S,3S)-3-((R)-Hydroxy(4-(trifluoromethyl)phenyl)methyl)-4-oxocyclohexyl)methyl)pentane-2,4-dione: Design and Synthesis of New Stereopure Multi-Target Antidiabetic Agent” (Molecules, 2022).

Structures are written as SMILES.

One may read the IC50 as the point on the concentration scale where inhibition reaches its midpoint. Low readings indicate higher potency, high ones lower potency. One may read the inhibition as the drop in the measured response relative to a control, in per cent.

Chain of α-glucosidase (P53341 whole entry): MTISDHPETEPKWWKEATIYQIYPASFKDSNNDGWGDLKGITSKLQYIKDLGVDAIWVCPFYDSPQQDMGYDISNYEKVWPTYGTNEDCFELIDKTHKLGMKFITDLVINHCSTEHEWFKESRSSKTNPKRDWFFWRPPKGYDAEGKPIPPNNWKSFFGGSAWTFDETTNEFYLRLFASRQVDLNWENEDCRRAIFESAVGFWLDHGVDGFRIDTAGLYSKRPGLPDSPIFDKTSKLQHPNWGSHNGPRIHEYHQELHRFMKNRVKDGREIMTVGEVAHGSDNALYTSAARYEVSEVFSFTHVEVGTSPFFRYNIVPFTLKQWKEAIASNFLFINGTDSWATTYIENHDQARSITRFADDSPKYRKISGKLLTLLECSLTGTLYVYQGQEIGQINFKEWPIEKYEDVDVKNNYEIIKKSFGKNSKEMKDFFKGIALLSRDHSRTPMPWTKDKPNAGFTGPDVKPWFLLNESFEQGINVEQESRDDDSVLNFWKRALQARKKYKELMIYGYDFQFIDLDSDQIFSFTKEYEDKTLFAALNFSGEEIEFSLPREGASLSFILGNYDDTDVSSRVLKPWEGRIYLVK

For `C[C@H]1O[C@H](O[C@H]2[C@H](O)[C@@H](O)[C@@H](O[C@H]3[C@H](O)[C@@H](O)C(O)O[C@@H]3CO)O[C@@H]2CO)[C@H](O)[C@@H](O)[C@@H]1N[C@H]1C=C(CO)[C@@H](O)[C@H](O)[C@H]1O` (some centres unmarked) [Acarbose], at α-glucosidase, the “α-Glucosidase % Inhibition” value is given as 95.20 ± 0.15 91.17 ± 0.53 86.98 ± 0.85 81.20 ± 0.65 77.80 ± 0.37% and the “α-Glucosidase Percent Inhibition” value is 95.20 ± 0.15 91.17 ± 0.53 86.98 ± 0.85 81.20 ± 0.65 77.80 ± 0.37%.

For the compound `CC(=O)C(C[C@H]1CCC(=O)[C@H]([C@@H](O)c2ccc(C(F)(F)F)cc2)C1)C(C)=O` [S,S,R-5, 3-(((1S,3S)-3-((R)-hydroxy(4-(trifluoromethyl)phenyl)methyl)-4-oxocyclohexyl)methyl)pentane-2,4-dione], the “Acute toxicity: behavioral changes or lethality” value with albino mice is “no unwanted behavioral changes or lethality”. For the same compound, the figures for the IC50 (at α-amylase; in series [1]; in series [2]) were 4.58 ± 0.14 µM, 0.91 ± 0.1 µM and 2.36 ± 0.1 µM, respectively. Further, the “α-Amylase Percent Inhibition” value is listed as 58.47 ± 0.56% in the series with α-amylase (31.25 μM/mL), 62.28 ± 0.57% in the series on α-amylase (62.5 μM/mL), 68.90 ± 0.96% in the series with α-amylase (125 μM/mL) and 73.08 ± 0.47% in the series on α-amylase (250 μM/mL). Also, the inhibition at 31.25 µM in series [1] is 73.7%. In addition, in series [1], the inhibition at 62.5 µM was 76.2%. Also, in series [1], the inhibition at 125 µM was 79.6%. Besides, in series [1], the inhibition at 250 µM was 84.4%. In addition, the “DPPH Percent Inhibition” value stood at 71.90 ± 0.45% in series [2] (31.25 μM/mL), 76.00 ± 0.30% in series [2] (62.5 μM/mL), 81.90 ± 0.60% in series [2] (125 μM/mL) and 87.45 ± 0.90% in series [2] (250 μM/mL).

For `C[C@H]1[C@H](C)CC[C@]2(C(=O)O)CC[C@]3(C)C(=CC[C@@H]4[C@@]5(C)CC[C@H](O)C(C)(C)[C@@H]5CC[C@]43C)[C@H]12` [Ursolic acid, reference compound], in series [1], the inhibition at 31.25 µM was 76%, the inhibition at 62.5 µM was 78.3%, the inhibition at 125 µM was 82.3% and the inhibition at 250 µM is 87.2%. Moreover, in series [1], the inhibition at 500 µM is 90.83 ± 0.47%.

As to `CC(=O)C(CC1CCC(=O)C(C(O)c2ccc(C(F)(F)F)cc2)C1)C(C)=O` [minor (S,S,R-5)], in the series on α-amylase (setting [3]), the “α-Amylase % Inhibition” value is reported as 72.65%. In series [1], this compound came in with an inhibition at 500 µM of 65.4%. In addition, in series [2] (setting [3]), the “DPPH % Inhibition” value is listed as 70.21%.
